{"source": "PubChem BioAssay AID1963974", "about": "(Molecular Pharmacology Branch, DTP, NCI, 2024);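 also: spheroids exposed to agents for seven days before reading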;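 as to viability, T/C: percent of vehicle control luminescence where 100% = DMSO treated spheroids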", "test_system": "648629-189-R-J1-PDC spheroids with HUVEC/MSC, viability", "test": "Anticancer human tumor 648629-189-R-J1-PDC patient-derived bladder carcinoma cell line growth inhibition [PI3K]", "details": "for viability, T/C: stronger effect = lower value", "method_in_brief": "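High-throughput combination screen: PI3K inhibitors crossed with targeted small molecules on complex spheroids of tumor cells, HUVEC and MSCs at 37 degrees C, 5% CO2. Top concentration was at or near clinical Cmax (otherwise 10 microM), with half-log decrements.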", "key": {"[1]": {"details": "curve of first compound, second compound 0.0316 µM"}, "[2]": {"details": "curve of first compound, second compound 0.1 µM"}, "[3]": {"details": "curve of first compound, second compound 0.316 µM"}, "[4]": {"details": "curve of first compound, second compound 1 µM"}, "[5]": {"details": "curve of first compound, second compound 3.16 µM"}, "[6]": {"details": "curve of first compound, second compound 10 µM"}, "[7]": {"details": "second compound 0.0316 µM, first compound 0.0316 µM"}, "[8]": {"details": "second compound 0.0316 µM, first compound 0.1 µM"}, "[9]": {"details": "second compound 0.0316 µM, first compound 0.316 µM"}, "[10]": {"details": "second compound 0.0316 µM, first compound 1 µM"}, "[11]": {"details": "second compound 0.0316 µM, first compound 3.16 µM"}, "[12]": {"details": "second compound 0.0316 µM, first compound 10 µM"}, "[13]": {"details": "second compound 0.1 µM, first compound 0.0316 µM"}, "[14]": {"details": "second compound 0.1 µM, first compound 0.1 µM"}, "[15]": {"details": "second compound 0.1 µM, first compound 0.316 µM"}, "[16]": {"details": "second compound 0.1 µM, first compound 1 µM"}, "[17]": {"details": "second compound 0.1 µM, first compound 3.16 µM"}, "[18]": {"details": "second compound 0.1 µM, first compound 10 µM"}, "[19]": {"details": "second compound 0.316 µM, first compound 0.0316 µM"}, "[20]": {"details": "second compound 0.316 µM, first compound 0.1 µM"}, "[21]": {"details": "second compound 0.316 µM, first compound 0.316 µM"}, "[22]": {"details": "second compound 0.316 µM, first compound 1 µM"}, "[23]": {"details": "second compound 0.316 µM, first compound 3.16 µM"}, "[24]": {"details": "second compound 0.316 µM, first compound 10 µM"}, "[25]": {"details": "second compound 1 µM, first compound 0.0316 µM"}, "[26]": {"details": "second compound 1 µM, first compound 0.1 µM"}, "[27]": {"details": "second compound 1 µM, first compound 0.316 µM"}, "[28]": {"details": "second compound 1 µM, first compound 1 µM"}, "[29]": {"details": "second compound 1 µM, first compound 3.16 µM"}, "[30]": {"details": "second compound 1 µM, first compound 10 µM"}, "[31]": {"details": "second compound 3.16 µM, first compound 0.0316 µM"}, "[32]": {"details": "second compound 3.16 µM, first compound 0.1 µM"}, "[33]": {"details": "second compound 3.16 µM, first compound 0.316 µM"}, "[34]": {"details": "second compound 3.16 µM, first compound 1 µM"}, "[35]": {"details": "second compound 3.16 µM, first compound 3.16 µM"}, "[36]": {"details": "second compound 3.16 µM, first compound 10 µM"}, "[37]": {"details": "second compound 10 µM, first compound 0.0316 µM"}, "[38]": {"details": "second compound 10 µM, first compound 0.1 µM"}, "[39]": {"details": "second compound 10 µM, first compound 0.316 µM"}, "[40]": {"details": "second compound 10 µM, first compound 1 µM"}, "[41]": {"details": "second compound 10 µM, first compound 3.16 µM"}, "[42]": {"details": "second compound 10 µM, first compound 10 µM"}}}
{"smiles": "CC(Nc1ccc2c(c1)OCCn1cc(N3C(=O)OCC3C(F)F)nc1-2)C(N)=O", "note": "(stereo unspecified)", "values": [{"measurement": "viability, T/C", "setting": "compound 0.00316 µM", "value": "104% [middle of 8 runs]"}, {"measurement": "viability, T/C", "setting": "compound 0.01 µM", "value": "99.7% [middle of 8 runs]"}, {"measurement": "viability, T/C", "setting": "compound 0.0316 µM", "value": "106% [middle of 8 runs]"}, {"measurement": "viability, T/C", "setting": "compound 0.1 µM", "value": "95.2% [middle of 8 runs]"}, {"measurement": "viability, T/C", "setting": "compound 0.316 µM", "value": "81.1% [middle of 8 runs]"}, {"measurement": "viability, T/C", "setting": "compound 1 µM", "value": "73.8% [middle of 8 runs]"}, {"measurement": "IC50", "setting": "compound alone, run of 04/24/2023", "value": "> 1", "unit": "µM"}]}
{"smiles": "CC1(C)CCC(Nc2ncc(C(F)(F)F)c(-c3c[nH]c4c(P(C)(C)=O)c(C#N)ccc34)n2)CN1", "note": "(stereo unspecified) + CC(Nc1ncnc2nc[nH]c12)c1cc2cccc(Cl)c2c(=O)n1-c1ccccc1", "values": [{"measurement": "IC50", "setting": "[1]", "value": "< 0.0316", "unit": "µM"}, {"measurement": "IC50", "setting": "[2]", "value": "< 0.0316", "unit": "µM"}, {"measurement": "IC50", "setting": "[3]", "value": "< 0.0316", "unit": "µM"}, {"measurement": "IC50", "setting": "[4]", "value": "< 0.0316", "unit": "µM"}, {"measurement": "IC50", "setting": "[5]", "value": "< 0.0316", "unit": "µM"}, {"measurement": "IC50", "setting": "[6]", "value": "< 0.0316", "unit": "µM"}, {"measurement": "viability, T/C", "setting": "[7]", "value": 35.1, "unit": "%"}, {"measurement": "viability, T/C", "setting": "[8]", "value": 29, "unit": "%"}, {"measurement": "viability, T/C", "setting": "[9]", "value": 35.4, "unit": "%"}, {"measurement": "viability, T/C", "setting": "[10]", "value": 35.2, "unit": "%"}, {"measurement": "viability, T/C", "setting": "[11]", "value": 43, "unit": "%"}, {"measurement": "viability, T/C", "setting": "[12]", "value": 11.7, "unit": "%"}, {"measurement": "viability, T/C", "setting": "[13]", "value": 36.7, "unit": "%"}, {"measurement": "viability, T/C", "setting": "[14]", "value": 33.5, "unit": "%"}, {"measurement": "viability, T/C", "setting": "[15]", "value": 28.3, "unit": "%"}, {"measurement": "viability, T/C", "setting": "[16]", "value": 36, "unit": "%"}, {"measurement": "viability, T/C", "setting": "[17]", "value": 39.6, "unit": "%"}, {"measurement": "viability, T/C", "setting": "[18]", "value": 10.8, "unit": "%"}, {"measurement": "viability, T/C", "setting": "[19]", "value": 32, "unit": "%"}, {"measurement": "viability, T/C", "setting": "[20]", "value": 29.4, "unit": "%"}, {"measurement": "viability, T/C", "setting": "[21]", "value": 29.1, "unit": "%"}, {"measurement": "viability, T/C", "setting": "[22]", "value": 31.8, "unit": "%"}, {"measurement": "viability, T/C", "setting": "[23]", "value": 39.1, "unit": "%"}, {"measurement": "viability, T/C", "setting": "[24]", "value": 11.5, "unit": "%"}, {"measurement": "viability, T/C", "setting": "[25]", "value": 30.6, "unit": "%"}, {"measurement": "viability, T/C", "setting": "[26]", "value": 32.4, "unit": "%"}, {"measurement": "viability, T/C", "setting": "[27]", "value": 29.8, "unit": "%"}, {"measurement": "viability, T/C", "setting": "[28]", "value": 31.6, "unit": "%"}, {"measurement": "viability, T/C", "setting": "[29]", "value": 42, "unit": "%"}, {"measurement": "viability, T/C", "setting": "[30]", "value": 10.1, "unit": "%"}, {"measurement": "viability, T/C", "setting": "[31]", "value": 34, "unit": "%"}, {"measurement": "viability, T/C", "setting": "[32]", "value": 29.2, "unit": "%"}, {"measurement": "viability, T/C", "setting": "[33]", "value": 28.9, "unit": "%"}, {"measurement": "viability, T/C", "setting": "[34]", "value": 30.7, "unit": "%"}, {"measurement": "viability, T/C", "setting": "[35]", "value": 36.2, "unit": "%"}, {"measurement": "viability, T/C", "setting": "[36]", "value": 7.47, "unit": "%"}, {"measurement": "viability, T/C", "setting": "[37]", "value": 39.7, "unit": "%"}, {"measurement": "viability, T/C", "setting": "[38]", "value": 32, "unit": "%"}, {"measurement": "viability, T/C", "setting": "[39]", "value": 33.3, "unit": "%"}, {"measurement": "viability, T/C", "setting": "[40]", "value": 30.2, "unit": "%"}, {"measurement": "viability, T/C", "setting": "[41]", "value": 34.7, "unit": "%"}, {"measurement": "viability, T/C", "setting": "[42]", "value": 4.52, "unit": "%"}]}
{"smiles": "C=CC(=O)N1CCN(c2nc(=O)n(-c3c(C)ccnc3C(C)C)c3nc(-c4c(O)cccc4F)c(F)cc23)C(C)C1", "note": "(stereo unspecified) + CC(Nc1ncnc2nc[nH]c12)c1cc2cccc(Cl)c2c(=O)n1-c1ccccc1", "values": [{"measurement": "IC50", "setting": "[1]", "value": "> 10", "unit": "µM"}, {"measurement": "IC50", "setting": "[2]", "value": "> 10", "unit": "µM"}, {"measurement": "IC50", "setting": "[3]", "value": "> 10", "unit": "µM"}, {"measurement": "IC50", "setting": "[4]", "value": "> 10", "unit": "µM"}, {"measurement": "IC50", "setting": "[5]", "value": "> 10", "unit": "µM"}, {"measurement": "IC50", "setting": "[6]", "value": "> 10", "unit": "µM"}, {"measurement": "viability, T/C", "setting": "[7]", "value": 106, "unit": "%"}, {"measurement": "viability, T/C", "setting": "[8]", "value": 95.3, "unit": "%"}, {"measurement": "viability, T/C", "setting": "[9]", "value": 107, "unit": "%"}, {"measurement": "viability, T/C", "setting": "[10]", "value": 109, "unit": "%"}, {"measurement": "viability, T/C", "setting": "[11]", "value": 103, "unit": "%"}, {"measurement": "viability, T/C", "setting": "[12]", "value": 96.9, "unit": "%"}, {"measurement": "viability, T/C", "setting": "[13]", "value": 102, "unit": "%"}, {"measurement": "viability, T/C", "setting": "[14]", "value": 101, "unit": "%"}, {"measurement": "viability, T/C", "setting": "[15]", "value": 125, "unit": "%"}, {"measurement": "viability, T/C", "setting": "[16]", "value": 104, "unit": "%"}, {"measurement": "viability, T/C", "setting": "[17]", "value": 108, "unit": "%"}, {"measurement": "viability, T/C", "setting": "[18]", "value": 87.5, "unit": "%"}, {"measurement": "viability, T/C", "setting": "[19]", "value": 95.4, "unit": "%"}, {"measurement": "viability, T/C", "setting": "[20]", "value": 115, "unit": "%"}, {"measurement": "viability, T/C", "setting": "[21]", "value": 112, "unit": "%"}, {"measurement": "viability, T/C", "setting": "[22]", "value": 103, "unit": "%"}, {"measurement": "viability, T/C", "setting": "[23]", "value": 112, "unit": "%"}, {"measurement": "viability, T/C", "setting": "[24]", "value": 103, "unit": "%"}, {"measurement": "viability, T/C", "setting": "[25]", "value": 120, "unit": "%"}, {"measurement": "viability, T/C", "setting": "[26]", "value": 99.3, "unit": "%"}, {"measurement": "viability, T/C", "setting": "[27]", "value": 107, "unit": "%"}, {"measurement": "viability, T/C", "setting": "[28]", "value": 107, "unit": "%"}, {"measurement": "viability, T/C", "setting": "[29]", "value": 101, "unit": "%"}, {"measurement": "viability, T/C", "setting": "[30]", "value": 92.1, "unit": "%"}, {"measurement": "viability, T/C", "setting": "[31]", "value": 103, "unit": "%"}, {"measurement": "viability, T/C", "setting": "[32]", "value": 92.1, "unit": "%"}, {"measurement": "viability, T/C", "setting": "[33]", "value": 104, "unit": "%"}, {"measurement": "viability, T/C", "setting": "[34]", "value": 101, "unit": "%"}, {"measurement": "viability, T/C", "setting": "[35]", "value": 106, "unit": "%"}, {"measurement": "viability, T/C", "setting": "[36]", "value": 98.8, "unit": "%"}, {"measurement": "viability, T/C", "setting": "[37]", "value": 94.2, "unit": "%"}, {"measurement": "viability, T/C", "setting": "[38]", "value": 86.9, "unit": "%"}, {"measurement": "viability, T/C", "setting": "[39]", "value": 96.4, "unit": "%"}, {"measurement": "viability, T/C", "setting": "[40]", "value": 95.6, "unit": "%"}, {"measurement": "viability, T/C", "setting": "[41]", "value": 89.8, "unit": "%"}, {"measurement": "viability, T/C", "setting": "[42]", "value": 88.3, "unit": "%"}]}
